The structures appear in SMILES notation. pEC50: −log10 of the molar value.

In data set [1] the test system is Influenza strain A549 A/WSN/33 (H1N1). Description: microbe, parasite or virus in culture. The note with it: Influenza A virus, A549, 20 h, A549 cells, influenza A/WSN/33 (H1N1), 20 hours incubation; read-out: A549_A(H1N1) EC50. It is filed as cell-based.
The nature of the next data set: in vitro. The following applies: human, CC50, uninfected A549 cells, CellTiter-Glo. (In general: Cellular ATP, detected with luciferase, serves as a proxy for viable cell number.)

With `O=C1c2c(O)c(=O)ccn2N2CN1CC/C=C\COc1ccc(F)c3c1[C@@H]2c1ccccc1SC3` (single isomer, unassigned) [Compound 93A, (1*R,13Z)-20-fluoro-7-hydroxy-16-oxa-23-thia-2,3,10-triazahexacyclo[15.12.1.12,10.03,8.021,30.024,29]hentriaconta-4,7,13,17,19,21(30),24(29),25,27-nonaene-6], the pEC50 (as a rule, −log10 of the EC50, conventionally taken in molar units) in data set [1] was below 6.30. In “in vitro”, the CC50 (in general, the concentration giving 50% cytotoxicity) was above 1000 nM.

For `O=C1c2c(O)c(=O)ccn2N2CN1CC/C=C\COc1ccc(F)c3c1[C@H]2c1ccccc1SC3` (single isomer, unassigned) [Compound 93B, (1*SR,13Z)-20-fluoro-7-hydroxy-16-oxa-23-thia-2,3,10-triazahexacyclo[15.12.1.12,10.03,8.021,30.024,29]hentriaconta-4,7,13,17,19,21(30),24(29),25,27-nonaene-6], in data set [1], the pEC50 is 8.66. Also, the CC50 in “in vitro” is above 200 nM.

For `O=C1c2c(O)c(=O)ccn2N2CN1C/C=C\COc1cc(C(F)F)ccc1[C@@H]2c1ccccc1` (single isomer, unassigned) [Compound 94A, (18*S,Z)-3-(difluoromethyl)-12-hydroxy-18-phenyl-6,9-dihydro-18H-10,17-methanobenzo[b]pyrido[1,2-f][1]oxa[5,6,9]triazacyclotridecine-11,13-dione], the pEC50 in data set [1] is 7.59. The CC50 in the data set “in vitro” was above 1000 nM.

As to `O=C1c2c(O)c(=O)ccn2N2CN1C/C=C\COc1cc(C(F)F)ccc1[C@H]2c1ccccc1` (single isomer, unassigned) [Compound 94B, (18*R,Z)-3-(difluoromethyl)-12-hydroxy-18-phenyl-6,9-dihydro-18H-10,17-methanobenzo[b]pyrido[1,2-f][1]oxa[5,6,9]triazacyclotridecine-11,13-dione], in data set [1], the pEC50 is below 6.30. Further, the CC50 in “in vitro” is above 1000 nM.

With `O=C1c2c(O)c(=O)ccn2N2CN1C1(/C=C/COc3c(F)cccc3[C@@H]2c2ccccc2)CC1` (single isomer, unassigned) [Compound 95A, (18′*S,E)-4′-fluoro-12′-hydroxy-18′-phenyl-6′H,18′H-spiro[cyclopropane-1,9′-[10,17]methanobenzo[b]pyrido[1,2-f][1]oxa[5,6,9]triazacyclotridecine]-11′,13′-dione], the pEC50 in data set [1] is below 6.30. Besides, the CC50 in “in vitro” was above 1000 nM.

`O=C1c2c(O)c(=O)ccn2N2CN1C1(/C=C/COc3c(F)cccc3[C@H]2c2ccccc2)CC1` (single isomer, unassigned) [Compound 95B, (18′*R,E)-4′-fluoro-12′-hydroxy-18′-phenyl-6′H,18′H-spiro[cyclopropane-1,9′-[10,17]methanobenzo[b]pyrido[1,2-f][1]oxa[5,6,9]triazacyclotridecine]-11′,13′-dione]: the pEC50 in data set [1] was 8.77. This compound also showed a CC50 in the data set “in vitro” above 1000 nM.

`O=C1c2c(O)c(=O)ccn2N2CN1C1(/C=C/COc3c(Cl)cccc3[C@H]2c2ccccc2)CC1` (single isomer, unassigned) [Compound 96A, (18′*R,E)-4′-chloro-12′-hydroxy-18′-phenyl-6′H,18′H-spiro[cyclopropane-1,9′-[10,17]methanobenzo[b]pyrido[1,2-f][1]oxa[5,6,9]triazacyclotridecine]-11′,13′-dione]: the pEC50 in data set [1] was 8.72. Besides, in the data set “in vitro”, the CC50 was above 200 nM.

For `O=C1c2c(O)c(=O)ccn2N2CN1C1(/C=C/COc3c(Cl)cccc3[C@@H]2c2ccccc2)CC1` (single isomer, unassigned) [Compound 96B], in data set [1], the pEC50 was below 6.30. Moreover, the CC50 in “in vitro” is above 1000 nM.

Consider `CC[C@@H]1/C=C/COc2cc(Cl)ccc2[C@@H](c2ccccc2)N2CN1C(=O)c1c(O)c(=O)ccn12` (single isomer, unassigned) [Compound 97AA], for which the pEC50 in data set [1] is 8.24. This compound also displayed a CC50 in “in vitro” above 1000 nM.

Take `CC[C@H]1/C=C/COc2cc(Cl)ccc2[C@@H](c2ccccc2)N2CN1C(=O)c1c(O)c(=O)ccn12` (single isomer, unassigned) [Compound 97AB]: the pEC50 in data set [1] was 8.25. This compound also displayed a CC50 in “in vitro” above 1000 nM.

The values are drawn from patent US11312727B1, “Macrocyclic flu endonuclease inhibitors” (Janssen BioPharma, Inc., priority 2018, dated 2022).
